One test deals with T1, RII (Homo sapiens, UniProt P13861).
T1 construct: endogenous in cells; host or cells: HEK293
In words: Co-immunoprecipitation with RII in transfected HEK293 cells. The test is classed as cell-based. As to conditions: HEK293 cells transfected with GFP-fusion constructs. As for the experimental part:
HEK293 cells at […] were transfected with ten μg of plasmid DNA (GFP, GFP-MEME3 or GFP-Scrambled MEME3) by using the CaCl2 method. Cells were lysed after 30 hours in lysis buffer (20 mM Hepes, pH 7.5/150 mM NaCl/1 mM EDTA/1% Triton X-100) with protease inhibitors (Complete Mini, EDTA-free tablets, Roche).
Immunoblot analysis. Immunocomplexes and lipid raft fractions were analysed on a 10, 15% or 4-20% PAGE and blotted onto PVDF membranes. The filters were blocked in 5% non-fat dry milk in TBST for 30 minutes at RT, incubated 1 hour at RT (or overnight at 4° C.) with primary antibodies, washed four times 5 minutes in TBST with 0.1% Tween-20 and incubated with a horseradish-peroxidase-conjugated secondary antibody. Blots were developed by using Supersignal West Dura Extended Duration Substrate or Supersignal West Pico substrate (Pierce).
Antibodies. RI or RII were immunoprecipitated with polyclonal antibodies against human RI or human RII at a 3 μg/ml dilution (Santa Cruz Biotechnology). MEME3 or scrambled peptide was immunoprecipitated with 1.5 μl of anti-GFP antiserum (Invitrogen). […]
Immunocomplexes were analysed on 10% PAGE (B and C) or 15% PAGE (D) and subjected to Western blotting using anti-GFP, anti-RI or anti-RII as indicated and blotted onto PVDF membranes. […]

Test [1] concerns the target T2, RI in lipid rafts of Jurkat T cells (Homo sapiens, UniProt P10644).
T2 construct: endogenous in cells; host or cells: Jurkat T cells
In words: PKA content of lipid rafts from transfected Jurkat T cells (densitometry). The settings on record: n=1. The test is classed as cell-based. The method, then:
Densitometric analysis. The densitometric analysis was performed using Scion Image (www.scioncorp.com) (Scion Coorperation, Mo., USA) or Quantity One version 4.5.0, (BioRad).
Cell cultures and transient transfections. The human leukemic T cell line Jurkat (clone E6.1), Jurkat TAg, a derivative of the Jurkat cell line stably transfected with the SV40 large T antigen (Clipstone, N. A., and Crabtree, G. R., 1992, Nature. 357:695-697) was cultured at 37° C. in RPMI medium (Gibco BRL) supplemented with 10% fetal calf serum, 2 mM glutamine, penicillin, streptomycin, 1 mM sodium pyruvate and nonessential amino acids. For transfections, cells (5×10^6) in 0.4 ml Opti-MEM were mixed with 40 μg of each DNA construct (GFP-MEME3 or GFP-Scrambled MEME3) in electroporation cuvettes with a 0.4-cm electrode gap (BioRad Laboratories) and subjected to an electric field of 250 V/cm with 960 μF capacitance. A total of 2×10^7 cells were transfected per DNA construct. The cells were expanded in complete medium and harvested after 20 h. The transfection efficiency was determined by microscopic analysis.
Immunoblot analysis. Immunocomplexes and lipid raft fractions were analysed on a 10, 15% or 4-20% PAGE and blotted onto PVDF membranes. […]
Lipid Raft Purification. […] The fractions were analysed by immunoblot analysis. […]

The target of test [2] is T3, membrane localized RI in Jurkat T cells (Homo sapiens, UniProt P10644).
T3 construct: endogenous in cells; host or cells: Jurkat T cells
The experiment in a line: Immunofluorescence of RI localisation in Jurkat T cells. The test is classed as cell-based.

For test [3], the target named is T4, PKA-type II in lipid rafts of human peripheral blood T cells (Homo sapiens, UniProt P13861).
T4 construct: endogenous in cells; host or cells: human peripheral blood CD3+ T cells
The experiment in a line: PKA type II content of lipid rafts from human T cells. It is filed as cell-based. As to conditions: n=4. As for the experimental part: Lipid Raft Purification. Isolation of lipid rafts or glycolipid-enriched membrane microdomains was performed as described in detail elsewhere (Zhang, W. et al., 1998, Immunity 9:239-246). In brief, cells were homogenized in 1 ml ice-cold lysis buffer (50 mM Hepes, pH 7.4, 100 mM NaCl, 5 mM EDTA, […], 10 mM sodium pyrophosphate, 1 mM Na3VO4, 50 mM NaF, 1 mM PMSF, and protease inhibitors) by 10 pestle strokes in a Dounce homogenizer, loaded at the bottom of a 40-5% sucrose gradient and centrifuged at 200,000 g for 5 or 20 h. 80 μl or 0.4-ml fractions were collected from the top. The fractions were analysed by immunoblot analysis. LAT was used as a marker for lipid raft fractions.
Lipid rafts were purified from isolated human peripheral blood T cells treated with MEME3-Arg11 or SM3-Arg11 for 12 hours, followed by 10% PAGE and blotting onto a PVDF membrane and immunoblotting (FIG. 18, left panel). The PKA content was measured by densitometry of immunoblots (n=4). PKA type I in cells treated with 10 μM or 25 μM M3-Arg11 was reduced by 80% and 90%, respectively. The very weak signal observed after immunoblotting using antibodies against RIIα (data not shown) was measured by densitometry of the autoradiogram. The PKA-type II level was not reduced in lipid rafts from human peripheral blood T cells treated with MEME3-Arg11 (FIG. 18, right panel, n=4).

The subject of another test is Csk-PS364. In words: Csk phosphoserine 364 level in forskolin-stimulated T cells. It is filed as cell-based, human. As to conditions: 25 μM, 12 hours. As for the experimental part:
Antibodies. RI or RII were immunoprecipitated with polyclonal antibodies against human RI or human RII at a 3 μg/ml dilution (Santa Cruz Biotechnology). MEME3 or scrambled peptide was immunoprecipitated with 1.5 μl of anti-GFP antiserum (Invitrogen). Monoclonal (Transduction laboratories) or polyclonal antibodies (Santa Cruz Biotechnology) against human RIα and RIIα were used at a 1 μg ml^−1 or 0.5 μg ml^−1 ilution for Western blotting. Polyclonal antibodies against human Cα (Santa Cruz Biotechnology) and LAT (Upstate Biotechnology) were used at a 0.4 μg ml^−1 and a 1 μg ml^−1 dilution for Western blotting, respectively. Polyclonal antibodies against LckPY505 (Cell Signaling) were used at a 1:1000 dilution and polyclonal antibody raised towards PS364 in Csk were used as previously described (Yaqub et al., Biochem. J., 372: p 271-8, 2003). Polyclonal antibodies against StAR (Affinity BioReagents) were used at 1 μg ml^−1. […]
Peripheral blood T cells were treated with 25 μM M3-Arg11 or mock treated for 12 hours and stimulated with forskolin to activate the PKA-Csk inhibitory pathway. Subsequently, cell lysates were subjected to […], blotting onto a PVDF membranes and the Csk phosphoserine 364 levels were assessed by immunoblotting using phosphospecific antibodies to Csk-PS364 (FIG. 19, upper panel).

T1 sequence (P13861 whole entry): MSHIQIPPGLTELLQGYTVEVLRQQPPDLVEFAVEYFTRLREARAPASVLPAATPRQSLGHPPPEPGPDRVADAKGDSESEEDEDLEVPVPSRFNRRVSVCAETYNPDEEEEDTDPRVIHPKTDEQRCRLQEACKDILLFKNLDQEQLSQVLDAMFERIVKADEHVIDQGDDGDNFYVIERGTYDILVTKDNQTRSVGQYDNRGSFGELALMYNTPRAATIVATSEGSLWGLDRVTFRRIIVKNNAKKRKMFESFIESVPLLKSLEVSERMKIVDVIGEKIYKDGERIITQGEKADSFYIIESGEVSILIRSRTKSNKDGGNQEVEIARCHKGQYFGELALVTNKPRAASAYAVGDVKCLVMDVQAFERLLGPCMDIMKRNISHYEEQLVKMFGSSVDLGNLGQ
T4 sequence (P13861 whole entry): as above

Turning to `CC[C@H](C)[C@H](NC(=O)[C@H](CCC(N)=O)NC(=O)[C@H](CC(=O)O)NC(=O)[C@H](C)NC(=O)[C@H](CC(C)C)NC(=O)[C@H](CCC(N)=O)NC(=O)[C@H](CC(N)=O)NC(=O)[C@H](C)NC(=O)[C@H](Cc1ccc(O)cc1)NC(=O)[C@H](CCC(N)=O)NC(=O)[C@H](CCC(=O)O)NC(=O)[C@@H](N)CC(C)C)C(=O)N[C@H](C(=O)N[C@@H](CCCCN)C(=O)N[C@@H](CCC(=O)O)C(=O)N[C@@H](C)C(=O)N[C@H](C(=O)N[C@@H](CCC(=O)O)C(=O)N[C@@H](CCCCNC(=O)c1ccc2c(c1)C(=O)OC21c2ccc(O)cc2Oc2cc(O)ccc21)C(N)=O)[C@@H](C)O)[C@@H](C)CC` [MEME3], the “co-precipitation with RII” value on RII is reported as “not with RII”. This compound showed a reduction of RI concentration in lipid rafts compared to SM3 in test [1] of 40%.
Take “LEQYANQLADQIIKEATERRRRRRRRRrr [MEME3-Arg11]”: the “displacement of membrane localized RI” value in test [2] (1 μM) was “some displacement of RI from cell membrane”; in test [2] (5 μM) it was “All membrane localized RI was displaced and was delocalised”. The “PKA-type II level in lipid rafts” value in test [3] is listed as “not reduced”. In addition, the “reduction of Csk-PS364 level” value in the test with Csk-PS364 worked out at 70%.

The values are drawn from patent US20080248008A1, “Inhibitors of Protein Kinase a Anchoring” (priority 2004, published 2008).
